In patent US20230085307A1, “PYRIDAZINONE COMPOUND AND HERBICIDE” (NISSAN CHEMICAL CORPORATION, priority 2019, published 2023):

Test system: late watergrass
Assay: Test Example 1: herbicidal activity, application before weed generation under submerged conditions (Table 16, symbol A)
Type: in vivo, late watergrass (Echinochloa oryzicola)
Settings: amount of applied herbicide 320 g/ha
Outline: (§1)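 Submerged Wagner pots (alluvial soil, 4 cm water) sown with weed seeds and planted with 2.5-leaf rice seedlings; emulsifiable concentrate diluted in water applied to water surface on sowing day. Held in greenhouse at 25-30 °C; injury scored 0-5 by herbicidal rate after three weeks.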

SMILES	Herbicidal effect, A: late watergrass
Cc1nn(C)c(=O)c(-c2c(-c3ccc(OC(C)C)cc3)oc3ccc(F)cc23)c1O [9-025]	5 (Herbicidal rate of 90% or more (almost completely withered))
CCCC(=O)Oc1c(C)nn(C)c(=O)c1-c1c(-c2ccc3c(c2)OCCO3)oc2ccc(C)cc12 [9-013]	3 (Herbicidal rate of 40% or more and less than 70%)

Test system: Japanese bulrush
Assay: Test Example 1: herbicidal activity, application before weed generation under submerged conditions (Table 16, symbol B)
Type: in vivo, Japanese bulrush (Schoenoplectus juncoides)
Settings: amount of applied herbicide 320 g/ha
Outline: as §1

SMILES	Herbicidal effect, B: Japanese bulrush
Cc1nn(C)c(=O)c(-c2c(-c3ccc(OC(C)C)cc3)oc3ccc(F)cc23)c1O [9-025]	5 (Herbicidal rate of 90% or more (almost completely withered))
CCCC(=O)Oc1c(C)nn(C)c(=O)c1-c1c(-c2ccc3c(c2)OCCO3)oc2ccc(C)cc12 [9-013]	4 (Herbicidal rate of 70% or more and less than 90%)

Test system: Japanese bulrush
Assay: Test Example 2: herbicidal activity, application during weed generation under submerged conditions (Table 17, symbol B)
Type: in vivo, Japanese bulrush (Schoenoplectus juncoides)
Settings: AAH 320 g/ha; application during weed generation, submerged conditions
Outline: (§2)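 3-wk visual-criteria score after one water-surface dose. Emulsion formulation, water-diluted to set rate; applied at 1–2 leaf stage; alluvial soil, 4 cm standing water; seeds co-sown; greenhouse 25–30° C.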

SMILES	herbicidal effect rating, B: Japanese bulrush
Cc1nn(C)c(=O)c(-c2c(-c3ccc(OC(C)C)cc3)oc3ccc(F)cc23)c1O [9-025]	3 (Herbicidal rate of 40% or more and less than 70%)
CCCC(=O)Oc1c(C)nn(C)c(=O)c1-c1c(-c2ccc3c(c2)OCCO3)oc2ccc(C)cc12 [9-013]	0 (Herbicidal rate of 5% or less (almost no effect))

Test system: oval-leafed pondweed
Assay: Test Example 2: herbicidal activity, application during weed generation under submerged conditions (Table 17, symbol C)
Type: in vivo, oval-leafed pondweed (Monochoria vaginalis)
Settings: AAH 320 g/ha; application during weed generation, submerged conditions
Outline: as §2

SMILES	herbicidal effect rating, C: oval-leafed pondweed
Cc1nn(C)c(=O)c(-c2c(-c3ccc(OC(C)C)cc3)oc3ccc(F)cc23)c1O [9-025]	4 (Herbicidal rate of 70% or more and less than 90%)
CCCC(=O)Oc1c(C)nn(C)c(=O)c1-c1c(-c2ccc3c(c2)OCCO3)oc2ccc(C)cc12 [9-013]	5 (Herbicidal rate of 90% or more (almost completely withered))

Test system: green foxtail
Assay: Test Example 4: herbicidal effect by soil treatment (Table 19, symbol G)
Type: in vivo, green foxtail (Setaria viridis)
Settings: amount of applied herbicide 320 g/ha
Outline: (§3)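 In this soil treatment, the formulated compound reached the seeds only through the soil: seeds were buried about 1.5 cm deep in sterilized diluvial soil, then the diluted emulsion was sprayed over the surface. After three weeks at 25° C. to 30° C. in a greenhouse, effects were graded on criteria from an earlier test.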

SMILES	G: green foxtail, herbicidal effect grade
Cc1nn(C)c(=O)c(-c2c(-c3ccc(OC(C)C)cc3)oc3ccc(F)cc23)c1O [9-025]	5 (Herbicidal rate of 90% or more (almost completely withered))
CCCC(=O)Oc1c(C)nn(C)c(=O)c1-c1c(-c2ccc3c(c2)OCCO3)oc2ccc(C)cc12 [9-013]	3 (Herbicidal rate of 40% or more and less than 70%)

Test system: wild oat
Assay: Test Example 4: herbicidal effect by soil treatment (Table 19, symbol I)
Type: in vivo, wild oat (Avena fatua)
Settings: amount of applied herbicide 320 g/ha
Outline: as §3

SMILES	I: wild oat, herbicidal effect grade
Cc1nn(C)c(=O)c(-c2c(-c3ccc(OC(C)C)cc3)oc3ccc(F)cc23)c1O [9-025]	0 (Herbicidal rate of 5% or less (almost no effect))
CCCC(=O)Oc1c(C)nn(C)c(=O)c1-c1c(-c2ccc3c(c2)OCCO3)oc2ccc(C)cc12 [9-013]	0 (Herbicidal rate of 5% or less (almost no effect))

Test system: blackgrass
Assay: Test Example 4: herbicidal effect by soil treatment (Table 19, symbol J)
Type: in vivo, blackgrass (Alopecurus myosuroides)
Settings: amount of applied herbicide 320 g/ha
Outline: as §3

SMILES	J: blackgrass, herbicidal effect grade
Cc1nn(C)c(=O)c(-c2c(-c3ccc(OC(C)C)cc3)oc3ccc(F)cc23)c1O [9-025]	3 (Herbicidal rate of 40% or more and less than 70%)
CCCC(=O)Oc1c(C)nn(C)c(=O)c1-c1c(-c2ccc3c(c2)OCCO3)oc2ccc(C)cc12 [9-013]	0 (Herbicidal rate of 5% or less (almost no effect))

Test system: Italian ryegrass
Assay: Test Example 4: herbicidal effect by soil treatment (Table 19, symbol K)
Type: in vivo, Italian ryegrass (Lolium multiflorum)
Settings: amount of applied herbicide 320 g/ha
Outline: as §3

SMILES	K: Italian ryegrass, herbicidal effect grade
Cc1nn(C)c(=O)c(-c2c(-c3ccc(OC(C)C)cc3)oc3ccc(F)cc23)c1O [9-025]	5 (Herbicidal rate of 90% or more (almost completely withered))
CCCC(=O)Oc1c(C)nn(C)c(=O)c1-c1c(-c2ccc3c(c2)OCCO3)oc2ccc(C)cc12 [9-013]	0 (Herbicidal rate of 5% or less (almost no effect))

Test system: velvetleaf
Assay: Test Example 4: herbicidal effect by soil treatment (Table 19, symbol M)
Type: in vivo, velvetleaf (Abutilon theophrasti)
Settings: amount of applied herbicide 320 g/ha
Outline: as §3

SMILES	M: velvetleaf, herbicidal effect grade
Cc1nn(C)c(=O)c(-c2c(-c3ccc(OC(C)C)cc3)oc3ccc(F)cc23)c1O [9-025]	3 (Herbicidal rate of 40% or more and less than 70%)
CCCC(=O)Oc1c(C)nn(C)c(=O)c1-c1c(-c2ccc3c(c2)OCCO3)oc2ccc(C)cc12 [9-013]	2 (Herbicidal rate of 20% or more and less than 40%)

Test system: redroot pigweed
Assay: Test Example 4: herbicidal effect by soil treatment (Table 19, symbol N)
Type: in vivo, redroot pigweed (Amaranthus retroflexus)
Settings: amount of applied herbicide 320 g/ha
Outline: as §3

SMILES	N: redroot pigweed, herbicidal effect grade
Cc1nn(C)c(=O)c(-c2c(-c3ccc(OC(C)C)cc3)oc3ccc(F)cc23)c1O [9-025]	3 (Herbicidal rate of 40% or more and less than 70%)
CCCC(=O)Oc1c(C)nn(C)c(=O)c1-c1c(-c2ccc3c(c2)OCCO3)oc2ccc(C)cc12 [9-013]	3 (Herbicidal rate of 40% or more and less than 70%)

Test system: lambsquarters
Assay: Test Example 4: herbicidal effect by soil treatment (Table 19, symbol O)
Type: in vivo, lambsquarters (Chenopodium album)
Settings: amount of applied herbicide 320 g/ha
Outline: as §3

SMILES	O: lambsquarters, herbicidal effect grade
Cc1nn(C)c(=O)c(-c2c(-c3ccc(OC(C)C)cc3)oc3ccc(F)cc23)c1O [9-025]	4 (Herbicidal rate of 70% or more and less than 90%)
CCCC(=O)Oc1c(C)nn(C)c(=O)c1-c1c(-c2ccc3c(c2)OCCO3)oc2ccc(C)cc12 [9-013]	0 (Herbicidal rate of 5% or less (almost no effect))

Test system: persian speedwell
Assay: Test Example 4: herbicidal effect by soil treatment (Table 19, symbol R)
Type: in vivo, Persian speedwell (Veronica persica)
Settings: amount of applied herbicide 320 g/ha
Outline: as §3

SMILES	R: persian speedwell, herbicidal effect grade
Cc1nn(C)c(=O)c(-c2c(-c3ccc(OC(C)C)cc3)oc3ccc(F)cc23)c1O [9-025]	4 (Herbicidal rate of 70% or more and less than 90%)
CCCC(=O)Oc1c(C)nn(C)c(=O)c1-c1c(-c2ccc3c(c2)OCCO3)oc2ccc(C)cc12 [9-013]	0 (Herbicidal rate of 5% or less (almost no effect))

Test system: southern crabgrass
Assay: Test Example 5: herbicidal effect by foliage application, plastic box (Table 20, symbol F)
Type: in vivo, southern crabgrass (Digitaria ciliaris)
Settings: foliage application, 320 g/ha, three weeks after application
Outline: (§4)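 Plants were sown into sterilized diluvial soil under about 1.5 cm cover and kept in a greenhouse at 25° C. to 30° C. Fourteen days on, foliage received an even spray of the diluted emulsion. Herbicidal or crop effect was judged three weeks afterwards.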

SMILES	herbicidal effect on southern crabgrass (F)
Cc1nn(C)c(=O)c(-c2c(-c3ccc(OC(C)C)cc3)oc3ccc(F)cc23)c1O [9-025]	5 (Herbicidal rate of 90% or more (almost completely withered))
CCCC(=O)Oc1c(C)nn(C)c(=O)c1-c1c(-c2ccc3c(c2)OCCO3)oc2ccc(C)cc12 [9-013]	0 (Herbicidal rate of 5% or less (almost no effect))

Test system: green foxtail
Assay: Test Example 5: herbicidal effect by foliage application, plastic box (Table 20, symbol G)
Type: in vivo, green foxtail (Setaria viridis)
Settings: foliage application, 320 g/ha, three weeks after application
Outline: as §4

SMILES	herbicidal effect on green foxtail (G)
Cc1nn(C)c(=O)c(-c2c(-c3ccc(OC(C)C)cc3)oc3ccc(F)cc23)c1O [9-025]	0 (Herbicidal rate of 5% or less (almost no effect))
CCCC(=O)Oc1c(C)nn(C)c(=O)c1-c1c(-c2ccc3c(c2)OCCO3)oc2ccc(C)cc12 [9-013]	0 (Herbicidal rate of 5% or less (almost no effect))

Test system: barnyard grass
Assay: Test Example 5: herbicidal effect by foliage application, plastic box (Table 20, symbol H)
Type: in vivo, barnyard grass (Echinochloa crus-galli)
Settings: foliage application, 320 g/ha, three weeks after application
Outline: as §4

SMILES	herbicidal effect on barnyard grass (H)
Cc1nn(C)c(=O)c(-c2c(-c3ccc(OC(C)C)cc3)oc3ccc(F)cc23)c1O [9-025]	4 (Herbicidal rate of 70% or more and less than 90%)
CCCC(=O)Oc1c(C)nn(C)c(=O)c1-c1c(-c2ccc3c(c2)OCCO3)oc2ccc(C)cc12 [9-013]	0 (Herbicidal rate of 5% or less (almost no effect))

Test system: wild oat
Assay: Test Example 5: herbicidal effect by foliage application, plastic box (Table 20, symbol I)
Type: in vivo, wild oat (Avena fatua)
Settings: foliage application, 320 g/ha, three weeks after application
Outline: as §4

SMILES	herbicidal effect on wild oat (I)
Cc1nn(C)c(=O)c(-c2c(-c3ccc(OC(C)C)cc3)oc3ccc(F)cc23)c1O [9-025]	3 (Herbicidal rate of 40% or more and less than 70%)
CCCC(=O)Oc1c(C)nn(C)c(=O)c1-c1c(-c2ccc3c(c2)OCCO3)oc2ccc(C)cc12 [9-013]	0 (Herbicidal rate of 5% or less (almost no effect))

Test system: blackgrass
Assay: Test Example 5: herbicidal effect by foliage application, plastic box (Table 20, symbol J)
Type: in vivo, blackgrass (Alopecurus myosuroides)
Settings: foliage application, 320 g/ha, three weeks after application
Outline: as §4

SMILES	herbicidal effect on blackgrass (J)
Cc1nn(C)c(=O)c(-c2c(-c3ccc(OC(C)C)cc3)oc3ccc(F)cc23)c1O [9-025]	4 (Herbicidal rate of 70% or more and less than 90%)
CCCC(=O)Oc1c(C)nn(C)c(=O)c1-c1c(-c2ccc3c(c2)OCCO3)oc2ccc(C)cc12 [9-013]	0 (Herbicidal rate of 5% or less (almost no effect))

Test system: Italian ryegrass
Assay: Test Example 5: herbicidal effect by foliage application, plastic box (Table 20, symbol K)
Type: in vivo, Italian ryegrass (Lolium multiflorum)
Settings: foliage application, 320 g/ha, three weeks after application
Outline: as §4

SMILES	herbicidal effect on Italian ryegrass (K)
Cc1nn(C)c(=O)c(-c2c(-c3ccc(OC(C)C)cc3)oc3ccc(F)cc23)c1O [9-025]	5 (Herbicidal rate of 90% or more (almost completely withered))
CCCC(=O)Oc1c(C)nn(C)c(=O)c1-c1c(-c2ccc3c(c2)OCCO3)oc2ccc(C)cc12 [9-013]	2 (Herbicidal rate of 20% or more and less than 40%)

Test system: windgrass
Assay: Test Example 5: herbicidal effect by foliage application, plastic box (Table 20, symbol L)
Type: in vivo, windgrass (Apera spica-venti)
Settings: foliage application, 320 g/ha, three weeks after application
Outline: as §4

SMILES	herbicidal effect on windgrass (L)
Cc1nn(C)c(=O)c(-c2c(-c3ccc(OC(C)C)cc3)oc3ccc(F)cc23)c1O [9-025]	0 (Herbicidal rate of 5% or less (almost no effect))
CCCC(=O)Oc1c(C)nn(C)c(=O)c1-c1c(-c2ccc3c(c2)OCCO3)oc2ccc(C)cc12 [9-013]	0 (Herbicidal rate of 5% or less (almost no effect))

Test system: velvetleaf
Assay: Test Example 5: herbicidal effect by foliage application, plastic box (Table 20, symbol M)
Type: in vivo, velvetleaf (Abutilon theophrasti)
Settings: foliage application, 320 g/ha, three weeks after application
Outline: as §4

SMILES	herbicidal effect on velvetleaf (M)
Cc1nn(C)c(=O)c(-c2c(-c3ccc(OC(C)C)cc3)oc3ccc(F)cc23)c1O [9-025]	5 (Herbicidal rate of 90% or more (almost completely withered))
CCCC(=O)Oc1c(C)nn(C)c(=O)c1-c1c(-c2ccc3c(c2)OCCO3)oc2ccc(C)cc12 [9-013]	5 (Herbicidal rate of 90% or more (almost completely withered))
